Source: US8481731B2, “Compounds, pharmaceutical composition and methods relating thereto” (Boehringer Ingelheim International GmbH, priority 2009, dated 2013)
pEC50: −log10 of the molar value. Marks after values point to notes of the source that are not given here.

target: T1, human GPR119 receptor (Homo sapiens, UniProt Q8TDV5, S329A/T327A); test: cAMP assay (LANCE cAMP-384 Kit), cAMP accumulation in HEK293 cells stably expressing mutant human GPR119 receptor; assay type: cell-based; conditions: cAMP accumulation; HEK293 cells stably expressing a mutant form of the human GPR119 receptor; 20 min at 37° C.
T1 construct: N-terminal leader […]; expressed in transfected cells
T1 sequence (Q8TDV5 with tags, fused parts or gaps T327A/S329A): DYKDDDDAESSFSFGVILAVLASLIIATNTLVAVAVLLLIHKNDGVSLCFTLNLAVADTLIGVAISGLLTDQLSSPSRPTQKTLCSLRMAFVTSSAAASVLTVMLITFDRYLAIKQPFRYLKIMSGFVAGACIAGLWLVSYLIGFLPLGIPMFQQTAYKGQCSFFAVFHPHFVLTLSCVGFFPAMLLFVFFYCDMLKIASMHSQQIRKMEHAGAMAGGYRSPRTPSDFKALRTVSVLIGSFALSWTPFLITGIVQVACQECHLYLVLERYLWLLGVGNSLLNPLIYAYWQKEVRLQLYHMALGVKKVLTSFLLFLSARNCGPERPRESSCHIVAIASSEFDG
Method: Quantitative detection of cAMP accumulation from cells expressing human GPR119 receptor was achieved using Perkin Elmer's LANCE cAMP-384 Kit (Cat#AD0264) according to the manufacturer's protocol. Briefly, HEK293 cells stably expressing a mutant form of the human GPR119 receptor (Methionine 1 replaced with the amino acid sequence […], and T327 & S329 changed to alanines) were grown to 50-70% confluency in cell culture media (DMEM, 10% heat inactivated Fetal Bovine Serum, 50 I.U./mL penicillin, 50 μg/mL streptomycin, 10 mM HEPES, 20 μg/mL G418 Sulfate). On the day of the assay, GPR119 stable HEK293 cells were lifted from the tissue culture plate and 1000 cells/well were incubated along with various concentrations of test compounds for 20 min at 37° C. Detection Buffer (50 mM HEPES, 10 mM calcium chloride, 0.35% Triton X-100, 1 mg/mL BSA) containing cAMP-specific antibody was then added to all wells and allowed to equilibrate in the dark for 10 minutes at room temperature. Upon equilibration, Detection Buffer containing europium-labeled cAMP tracer complex was added to all wells and allowed to react for 1 hour at room temperature. After 1 hour, bound europium-labeled cAMP tracer was measured using a Perkin Elmer ViewLux. The quantity of cAMP generated in each well was derived from a standard curve.
For some compounds for which no EC50 value could be determined, the efficacy is provided at a single concentration (10 μM) yielding % stimulation values.

SMILES	pEC50
CC(C)OC(=O)N1CCC(Oc2cc(N3CCc4cc(S(C)(=O)=O)ccc43)ncn2)CC1 [Compound 4-1, 4-[6-(5-Methanesulfonyl-2,3-dihydro-indol-1-yl)-pyrimidin-4-yloxy]-piperidine-1-carboxylic acid isopropyl ester]	7.48
CC(C)COC(=O)N1CCC(Oc2cc(N3CCc4cc(S(C)(=O)=O)ccc43)ncn2)CC1 [Compound 4-2]	7.38
CS(=O)(=O)c1ccc2c(c1)CCN2c1cc(OC2CCN(C(=O)OC3CCC3)CC2)ncn1 [Compound 5-1, 4-[6-(5-Methanesulfonyl-2,3-dihydro-indol-1-yl)-pyrimidin-4-yloxy]-piperidine-1-carboxylic acid cyclobutyl ester]	7.62
CS(=O)(=O)c1ccc2c(c1)CCN2c1cc(OC2CCN(C(=O)OCC3CC3)CC2)ncn1 [Compound 5-2]	7.64
CCC(C)OC(=O)N1CCC(Oc2cc(N3CCc4cc(S(C)(=O)=O)ccc43)ncn2)CC1 (stereo not shown) [Compound 5-3]	7.46
COCC(C)OC(=O)N1CCC(Oc2cc(N3CCc4cc(S(C)(=O)=O)ccc43)ncn2)CC1 (stereo not shown) [Compound 5-4]	7.00
CS(=O)(=O)c1ccc2c(c1)CCN2c1cc(OC2CCN(C(=O)OC(CF)CF)CC2)ncn1 [Compound 5-5]	6.62
CC(C)OC(=O)N1CCC(Nc2cc(N3CCc4cc(S(C)(=O)=O)ccc43)ncn2)CC1 [Compound 6-1, 4-[6-(5-Methanesulfonyl-2,3-dihydro-indol-1-yl)-pyrimidin-4-ylamino]-piperidine-1-carboxylic acid isopropyl ester]	6.21
CC(C)OC(=O)N1CCC(N(C)c2cc(N3CCc4cc(S(C)(=O)=O)ccc43)ncn2)CC1 [Compound 7-1, 4-[6-(5-Methanesulfonyl-2,3-dihydro-indol-1-yl)-pyrimidin-4-yl-methylamino]-piperidine-1-carboxylic acid isopropyl ester]	7.16
COc1c(OC2CCN(C(=O)OC(C)C)CC2)ncnc1N1CCc2cc(S(C)(=O)=O)ccc21 [Compound 8-1, 4-[6-(5-Methanesulfonyl-2,3-dihydro-indol-1-yl)-5-methoxy-pyrimidin-4-yloxy]-piperidine-1-carboxylic acid isopropyl ester]	6.70
Cc1c(OC2CCN(C(=O)OC(C)C)CC2)ncnc1N1CCc2ncccc21 [Compound 9-2, 4-[6-(2,3-Dihydro-pyrrolo[3,2-b]pyridin-1-yl)-5-methyl-pyrimidin-4-yloxy]-piperidine-1-carboxylic acid isopropyl ester]	6.51
CC(C)OC(=O)N1CCC(Oc2ccnc(N3CCc4cc(S(C)(=O)=O)ccc43)c2)CC1 [Compound 10-1, 4-[2-(5-Methanesulfonyl-2,3-dihydro-indol-1-yl)-pyridin-4-yloxy]-piperidine-1-carboxylic acid isopropyl ester]	6.23
CC(C)(C)OC(=O)N1CCC(Oc2ncnc(N3CCc4cc(S(C)(=O)=O)ccc43)c2F)CC1 [Compound 13-1, 4-[5-Fluoro-6-(5-methanesulfonyl-2,3-dihydro-indol-1-yl)-pyrimidin-4-yloxy]-piperidine-1-carboxylic acid tert-butyl ester]	6.42
CN(c1cc(N2CCc3cc(S(C)(=O)=O)ccc32)ncn1)C1CCN(C(=O)OC(C)(C)C)CC1 [Compound 16-1, 4-{[6-(5-Methanesulfonyl-2,3-dihydro-indol-1-yl)-pyrimidin-4-yl]-methyl-amino}-piperidine-1-carboxylic acid tert-butyl ester]	7.29
CCN(c1cc(N2CCc3cc(S(C)(=O)=O)ccc32)ncn1)C1CCN(C(=O)OC(C)(C)C)CC1 [Compound 16-2]	7.54
COCN(c1cc(N2CCc3cc(S(C)(=O)=O)ccc32)ncn1)C1CCN(C(=O)OC(C)(C)C)CC1 [Compound 16-3]	6.04
CCC(C)N(c1cc(N2CCc3cc(S(C)(=O)=O)ccc32)ncn1)C1CCN(C(=O)OC(C)(C)C)CC1 (stereo not shown) [Compound 16-4]	7.02
C=CCN(c1cc(N2CCc3cc(S(C)(=O)=O)ccc32)ncn1)C1CCN(C(=O)OC(C)(C)C)CC1 [Compound 16-5]	7.64
CC(C)(C)OC(=O)N1CCC(Oc2cc(N3CCc4nc(Cl)ccc43)ncn2)CC1 [Compound 20-1, 4-[6-(5-Chloro-2,3-dihydro-pyrrolo[3,2-b]pyridin-1-yl)-pyrimidin-4-yloxy]-piperidine-1-carboxylic acid tert-butyl ester]	6.12
CS(=O)(=O)c1ccc2c(c1)CCN2c1cc(OC2CCN(C(=O)OC3CCN(Cc4cccc(F)c4)C3)CC2)ncn1 (stereo not shown) [Compound 21-2]	6.56
CS(=O)(=O)c1ccc2c(c1)CCN2c1cc(OC2CCN(C(=O)OC3CCN(Cc4ccc(F)cc4)C3)CC2)ncn1 (stereo not shown) [Compound 21-3]	6.47
CS(=O)(=O)c1ccc2c(c1)CCN2c1cc(OC2CCN(C(=O)OC3CCN(Cc4cccc(F)c4F)C3)CC2)ncn1 (stereo not shown) [Compound 21-4]	6.46
CS(=O)(=O)c1ccc2c(c1)CCN2c1cc(OC2CCN(C(=O)OC3CCN(Cc4cc(F)cc(F)c4)C3)CC2)ncn1 (stereo not shown) [Compound 21-5]	6.51

same assay, conditions: single concentration 10 μM; given where no EC50 value could be determined; HEK293 cells expressing mutant human GPR119

SMILES	% stimulation at 10 μM
CC(C)(C)OC(=O)N1CC(Oc2cc(N3CCc4cc(S(C)(=O)=O)ccc43)ncn2)C1 [Compound 15-1, 3-[6-(5-Methanesulfonyl-2,3-dihydro-indol-1-yl)-pyrimidin-4-yloxy]-azetidine-1-carboxylic acid tert-butyl ester]	22%
CC(C)(C)OC(=O)N1CC[C@@H](Oc2cc(N3CCc4cc(S(C)(=O)=O)ccc43)ncn2)C1 [Compound 15-2, (R)-3-[6-(5-Methanesulfonyl-2,3-dihydro-indol-1-yl)-pyrimidin-4-yloxy]-pyrrolidine-1-carboxylic acid tert-butyl ester]	26%
CS(=O)(=O)c1ccc2c(c1)CCN2c1cc(OC2CCN(C(=O)OC3CCN(Cc4ccccc4F)C3)CC2)ncn1 (stereo not shown) [Compound 21-1, 4-[6-(5-Methanesulfonyl-2,3-dihydro-indol-1-yl)-pyrimidin-4-yloxy]-piperidine-1-carboxylic acid 1-(2-fluoro-benzyl)-pyrrolidin-3-yl ester]	78%*
CS(=O)(=O)c1ccc2c(c1)CCN2c1cc(OC2CCN(C(=O)OC3CCN(Cc4c(F)cccc4F)C3)CC2)ncn1 (stereo not shown) [Compound 21-6]	84%*
CC(C)OC(=O)N1CCC(Oc2cc(N3CCc4cc(S(C)(=O)=O)ccc43)ncc2C#N)CC1 [Compound 24-1, 4-[5-Cyano-2-(5-methanesulfonyl-2,3-dihydro-indol-1-yl)-pyridin-4-yloxy]-piperidine-1-carboxylic acid isopropyl ester]	54%
